The subject of data set [1] is mCRC. As to conditions: cited from earlier work.
Data set [2] relates to colorectal cancer cells. Kind of data set: Cell growth inhibition (Cell-titer Glo, ATP). In kind it is cell-based. As to conditions: 24, 48, and 72 hours of drug treatment; normalized to DMSO control. As to the method:
Tumor cells were treated with titrations of irinotecan, oxaliplatin, or vehicle control and monitored for growth after 24, 48, and 72 hours of drug treatment. Cell growth was indirectly determined using a commercially available reagent (Promega, Cell-titer Glo®) which measures intracellular adenosine triphosphate (ATP) levels and directly correlates to the number of live cells. […] DMSO=dimethyl sulfoxide; Oxa=oxaliplatin; SN-38=irinotecan.

Data set [3] in a line: Clinical safety of magrolimab. As to conditions: human, in vivo. As to the method:
In the first-in-human study of magrolimab in patients with solid tumors and lymphomas, after an initial priming dose of 1 mg/kg on the first day, magrolimab was tested as a monotherapy at weekly doses of up to 45 mg/kg. The use of an initial 1 mg/kg priming dose was integrated into the dosing regimen to mitigate the on-target anemia induced by CD47 blockade. An initial priming dose leads to elimination of aged RBCs that are sensitive to CD47 blockade and triggers reticulocytosis of young RBCs that are not affected by CD47 blockade (Chen, et al., Blood (ASH Annual Meeting Abstracts) (2018) 132 (Suppl 1):2327). […] Based on PK-PD modeling, a maintenance dose of 30 mg/kg every 2 weeks is expected to provide more than 90% occupancy of the CD47 receptor in peripheral blood and tumor tissues and thus is expected to provide maximal efficacy while maintaining adequate safety. In solid tumors where the combination therapy is given according to 3-week cycles, dosing of magrolimab every 3 weeks optimizes patient and caregiver convenience. […]
Up to 6 other patients will then be enrolled and evaluated at a lower dose level in the same manner. • Once the RP2D is determined, the sponsor will open the Randomized Cohort.

The conditions of data set [4]: with 1 mg/kg priming dose, then repeated therapeutic doses; cited from earlier work.
In data set [5] the test system is LS 174T cells. Kind of data set: Flow cytometry of prophagocytic receptors (CALR, PS) after 24 hours of drug. It is filed as cell-based. As to conditions: 24 hours incubation; CALR and PS staining. On the procedure:
(§1) A. LS 174T cells were incubated with titrations of irinotecan for 24 hours, washed, and stained for CALR and PS. Flow cytometry was used to analyze and quantify the frequency of stained cells. The shaded areas indicate reported IC50 for each drug. B. LS-174T or HCT-116 cells were pretreated for 24 hours with irinotecan or oxaliplatin at the indicated concentration. The tumor cells were washed, CFSE labeled and cocultured with monocyte-derived macrophages at a 2:1 target to effector ratio for 2 hours. The phagocytic index, defined as the percentage of the macrophages that engulfed tumor cells out of total macrophages, was quantified using flow cytometry. 5F9, Magro=magrolimab; CALR=calreticulin; CFSE=carboxyfluorescein succinimidyl ester; hr=hour; IC50=half-maximal inhibitory concentration; MFI=median fluorescence intensity; PBS=phosphate buffered saline; PS=phosphatidyl serine; SN 38=irinotecan.
(In general: Flow cytometry measures light scatter and fluorescence of single cells or particles in a stream.)

Data set [6] concerns LS-174T or HCT-116 cells. Kind of data set: In vitro phagocytosis of pretreated tumor cells by monocyte-derived macrophages. In kind it is cell-based. As to conditions: 24 hours pretreatment; 2:1 target to effector ratio, 2 hours coculture. On the procedure: as §1
Where [7] appears, read: continuation on bevacizumab versus standard chemotherapy alone.

Data on 4 compounds can be found in patent publication US20230365682A1, “COMBINATION THERAPY FOR TREATING COLORECTAL CANCER” (Gilead Sciences, Inc., priority 2022, published 2023).

Entries after “also recorded” stand apart in the source; their conditions may differ.

With “bevacizumab: humanized monoclonal antibody targeting circulatory VEGF and preventing tumor angiogenesis”, the PFS in data set [1] (continuation on bevacizumab after progression on first-line chemotherapy, standard chemotherapy alone 4.1 months) was 5.7 months. In addition, in data set [1] (continuation on bevacizumab after progression on first-line chemotherapy, standard chemotherapy alone 9.9 months), the OS was 11.2 months. In data set [1] (setting [7]), the “OS HR” value was 0.81 and the “PFS HR” value is recorded as 0.68.

For the compound `O=C1[O][Pt]2([NH][C@@H]3CCCC[C@H]3[NH]2)[O]C1=O` [oxaliplatin], the growth inhibition result in data set [2] was “growth inhibition”.

“magrolimab: humanized anti-CD47 mAb (human IgG4) that blocks the interaction of CD47 with its receptor and enables phagocytosis of human cancer cells”: the dose-dependent toxicities result in data set [3] is listed as “no dose-dependent toxicities have been observed”. Also, in data set [4], the anemia result was “initial, transient, and mild anemia that generally normalizes back to baseline over several weeks”.

Regarding `CCc1c2c(nc3ccc(OC(=O)N4CCC(N5CCCCC5)CC4)cc13)-c1cc3c(c(=O)n1C2)COC(=O)[C@]3(O)CC` [irinotecan], the “cell surface expression of prophagocytic receptors” value in data set [5] is recorded as “upregulates the expression of prophagocytic receptors; also recorded: more effective than oxaliplatin”. For the same compound, the “phagocytosis of colorectal cancer cells” value in data set [6] is on record as “promotes the in vitro phagocytosis of colorectal cancer cells; also recorded: more effective than oxaliplatin”. Moreover, the growth inhibition entry in data set [2] was “growth inhibition; also recorded: more likely to undergo growth inhibition”.
